Source: US11072585B2 (PharmAkea, Inc., priority 2015, dated 2021)
Where a name gives a salt, the structure may show the parent alone.

These compounds were tested against human LOXL2 (Homo sapiens (Human), UniProt Q9Y4K0) (assay: Human LOXL2 amine oxidase activity assay (Amplex Red)). Conditions: concentrated conditioned media from CHO cells stably expressing human LOXL2; 2 h at 37° C. with compound; DAP substrate.
Type: biochemical
Outline: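 Concentrated conditioned medium from CHO cells stably expressing human LOXL2 was preincubated with compound for 2 h at 37 °C in 50 mM borate, pH 8. 1,5-diaminopentane substrate and Amplex Red/HRP were then added. Fluorescence (544/590) was read kinetically every 2 min for 1 h, with activity taken from the linear slope.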

human LOXL2, sequence (Q9Y4K0 26-774): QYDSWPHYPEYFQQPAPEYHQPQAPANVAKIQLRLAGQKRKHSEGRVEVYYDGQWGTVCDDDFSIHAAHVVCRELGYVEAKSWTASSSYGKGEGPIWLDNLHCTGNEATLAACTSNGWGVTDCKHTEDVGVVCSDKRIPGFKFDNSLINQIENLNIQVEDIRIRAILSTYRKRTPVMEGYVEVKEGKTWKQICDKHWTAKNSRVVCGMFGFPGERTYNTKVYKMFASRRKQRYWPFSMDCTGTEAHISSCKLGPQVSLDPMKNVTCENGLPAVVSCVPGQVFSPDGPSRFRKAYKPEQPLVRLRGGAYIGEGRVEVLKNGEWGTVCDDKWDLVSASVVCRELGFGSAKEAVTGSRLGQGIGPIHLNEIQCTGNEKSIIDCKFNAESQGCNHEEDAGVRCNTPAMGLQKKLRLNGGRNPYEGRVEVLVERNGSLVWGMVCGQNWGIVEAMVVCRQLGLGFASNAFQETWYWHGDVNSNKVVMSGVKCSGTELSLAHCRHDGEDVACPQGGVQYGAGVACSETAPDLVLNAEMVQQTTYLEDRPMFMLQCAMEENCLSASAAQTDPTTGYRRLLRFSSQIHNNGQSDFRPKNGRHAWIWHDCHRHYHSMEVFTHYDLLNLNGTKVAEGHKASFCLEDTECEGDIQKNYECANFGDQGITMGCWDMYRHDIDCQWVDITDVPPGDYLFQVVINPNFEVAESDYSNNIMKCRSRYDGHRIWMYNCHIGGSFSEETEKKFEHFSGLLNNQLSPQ

| IC50 [nM] | Compound |
| --- | --- |
| < 300 | NCc1cc(O[C@H]2CCCN(C(=O)c3cccnc3)C2)nc(C(F)(F)F)c1 [Compound 1-49, (S)-(3-((4-(Aminomethyl)-6-(trifluoromethyl)pyridin-2-yl)oxy)piperidin-1-yl)(pyridin-3-yl)methanone trifluoroacetate] |
| 300 to 1000 | C#C[C@@H](CC(=O)O)NC(=O)c1cccc(Oc2cc(CN)cc(C(F)(F)F)n2)c1 [Compound 1-223, (R)-3-(3-((4-(aminomethyl)-6-(trifluoromethyl)pyridin-2-yl)oxy)benzamido)pent-4-ynoic acid hydrochloride] |
| < 300 | NCc1cc(Oc2cccc(C(=O)N3C[C@@H](F)[C@@H](O)C3)c2)nc(C(F)(F)F)c1 (single isomer, unassigned) [Compound 1-250, (R,S) or (S,R)-cis-(3-((4-(Aminomethyl)-6-(trifluoromethyl)pyridin-2-yl)oxy)phenyl)(3-fluoro-4-hydroxypyrrolidin-1-yl)methanone hydrochloride] |
| 300 to 1000 | NCc1cc(Oc2cccc3c2CCC(=O)N3CCO)nc(C(F)(F)F)c1 [Compound 1-60, 5-((4-(Aminomethyl)-6-(trifluoromethyl)pyridin-2-yl)oxy)-1-(2-hydroxyethyl)-3,4-dihydroquinolin-2(1H)-one hydrochloride] |
| < 300 | NCc1cc(Oc2cccc(C(=O)N[C@@H]3CCC[C@@H]3O)c2)nc(C(F)(F)F)c1 [Compound 1-209, 3-((4-(Aminomethyl)-6-(trifluoromethyl)pyridin-2-yl)oxy)-N-((1R,2S)-2-hydroxycyclopentyl)benzamide hydrochloride] |
| < 300 | NCc1cc(NCc2cccc(C(=O)Nc3ccccc3)c2)nc(C(F)(F)F)c1 [Compound 1-105, 3-(((4-(Aminomethyl)-6-(trifluoromethyl)pyridin-2-yl)amino)methyl)-N-phenylbenzamide hydrochloride] |
| < 300 | NCc1cc(Oc2cccc(C(=O)NC3(CO)CC3)c2)nc(C(F)(F)F)c1 [Compound 1-31, 3-((4-(Aminomethyl)-6-(trifluoromethyl)pyridin-2-yl)oxy)-N-(1-(hydroxymethyl)cyclopropyl)benzamide hydrochloride] |
| < 300 | Cn1cc(-n2ccc3c(Oc4cc(CN)cc(C(F)(F)F)n4)cccc32)cn1 [Compound 1-37, (2-((1-(1-Methyl-1H-pyrazol-4-yl)-1H-indol-4-yl)oxy)-6-(trifluoromethyl)pyridin-4-yl) methanamine hydrochloride] |
| 300 to 1000 | Cc1nnc(C(=O)N2CCC[C@H](Oc3cc(CN)cc(C(F)(F)F)n3)C2)o1 [Compound 1-51, (S)-(3-((4-(Aminomethyl)-6-(trifluoromethyl)pyridin-2-yl)oxy)piperidin-1-yl)(5-methyl-1,3,4-oxadiazol-2-yl)methanone trifluoroacetate] |
| 300 to 1000 | CC(=O)N1CCC2(CC(Oc3cc(CN)cc(C(F)(F)F)n3)C2)C1 (stereo not shown) [Compound 1-244, 1-(2-((4-(Aminomethyl)-6-(trifluoromethyl)pyridin-2-yl)oxy)-6-azaspiro[3.4]octan-6-yl)ethanone hydrochloride] |
| < 300 | C#CCNC(=O)c1cccc(Oc2cc(CN)cc(C(F)(F)F)n2)c1 [Compound 1-248, 3-((4-(Aminomethyl)-6-(trifluoromethyl)pyridin-2-yl)oxy)-N-(prop-2-yn-1-yl)benzamide hydrochloride] |
| < 300 | CN(C)CCNC(=O)c1cccc(Oc2cc(CN)cc(C(F)(F)F)n2)c1 [Compound 1-35, 3-((4-(Aminomethyl)-6-(trifluoromethyl)pyridin-2-yl)oxy)-N-(2-(dimethylamino)ethyl)benzamide dihydrochloride] |

| Compound | IC50 [nM] |
| --- | --- |
| NCc1cc(Oc2cccc(C(=O)N3CC(n4cccn4)C3)c2)nc(C(F)(F)F)c1 [Compound 1-12, (3-(1H-Pyrazol-1-yl)azetidin-1-yl)(3-((4-(aminomethyl)-6-(trifluoromethyl)pyridin-2-yl)oxy)phenyl)methanone trifluoroacetate] | < 300 |
